Assay [1] relates to NF-κB. Description: 293/NFkB-luc reporter cell assay (TNF-α induced luciferase expression). Format: cell-based. Conditions: 293/NFkB-luc, 293 cells, pNF-κB-luc reporter, 2 h pretreatment, 20 ng/ml TNF-α 18 h. As for the experimental part: (§1) Two reporter cell assays were used to determine the ability of the compound of Example 10 to inhibit NF-κB driven transcription. The first assay was a 293-cell based assay with a stably integrated pNF-κB-luc reporter plasmid containing 3 NF-κB promoter elements. The second assay was a 293-cell based assay with a stably integrated pTRH1-NF-κB-dscGFP reporter containing 4 NF-κB promoter elements. Cells were treated with 0, 0.2, 1, 10, 20 and 40 μM of the compound of Example 10 for 2 hours then were induced with 20 ng/ml TNF-α for 18 hours. Following the induction, luminescence or fluorescence was quantified using a Beckman-Coulter 2300 plate reader. […] These values represent the median value generated from three independent experiments. As a control, 0.5% DMSO treated and untreated cells were compared to verify that the compound of Example 10 had no effect on the expression of luciferase or in the readout of the assay. There was a slight decrease in the output from the assay in the DMSO treated population although it was not statistically significant. As a result of the controls, the decrease in activity in the drug treated samples was compared to the DMSO control sample.

For a further assay, the target named is T1, p65 (RelA) (Homo sapiens, UniProt Q04206).
T1 construct: purchased Active Motif
Description: TransAM NF-κB family DNA binding ELISA, p65. Type of assay: biochemical. Conditions: binding to NF-κB consensus oligonucleotide. How it is done: The binding activity of NF-κB heterodimer or homodimer subunits from activated nuclear extracts or purified recombinant NF-κB proteins exposed to the drug compounds was evaluated using the TransAM NF-κB Family binding ELISA (Active Motif). 3-5 μg of nuclear extracts from TNFα activated Hela or Raji cells (Active Motif) or 20 ng of purified recombinant proteins (p65 and p50 from Active Motif, p52 from Santa Cruz) were incubated for 1 hour at room temperature with 20 μL drug compounds diluted in Complete Lysis buffer without DTT. Treated samples were then transferred to 30 μL Complete Binding Buffer (with DTT) in microplate wells pre-coated with the NF-κB consensus oligonucleotide. […] The plate was incubated for 1 hour at room temperature with gentle shaking and then washed 3 times with 200 μL 1× Wash Buffer. NF-κB p65, p50, p52, RelB, or c-Rel subunits bound to the plate were detected with 100 μL of the primary antibody (diluted 1:1000 in 1× Antibody Buffer) specific for that subunit. The plate was incubated for 1 hour at room temperature and then washed 3 times with 200 μL 1× Wash Buffer. Next, 100 μL of a HRP conjugated goat anti-rabbit antibody (diluted 1:1,000 in 1× Antibody Buffer) was added to each well. The plate was incubated for 1 hour at room temperature and then washed 4 times with 200 μL 1× Wash Buffer. 100 μL of room temperature Developing Solution was added to each well. The reaction was allowed to develop for 2-10 minutes until a medium dark blue color developed (depending on the subunit activity in the lot of extract or lot of recombinant protein used) and then the reaction was stopped with 100 μL Stop Solution yielding a yellow color. Absorbance was recorded using a Becton-Dickinson DTX 880 Multimode Detector at 450 nm with a reference wavelength subtracted at 620 nm. FIGS. 2, 3 and 4 illustrate the effect of Example 10 on inhibiting RelA, RelB and c-Rel binding to NF-κB sites.

In assay [2] the test system is IL-6 release from RAW264.7 cells. Description: LPS-stimulated IL-6 release from RAW264.7 cells (ELISA). Type of assay: cell-based, mouse. Conditions: Mus musculus, RAW264.7, RAW264.7 cells, 2 h pretreatment, 1 μg/mL LPS 20-24 h; read-out: RAW 264.7 IL-6 release EC50. How it is done:
RAW 264.7 cells were seeded at 4×10^4 cells per well n complete growth medium in 96 well white TC plates with clear bottoms one day prior to the assay. The next day the cells were washed once and 100 μL fresh growth media was added. Cells were pretreated with 0.5 μL from a 6 point 200× dilution series of the test compounds in DMSO for 2 hours. Following pretreatment with the drugs, the inflammatory response was induced by adding 5 μL of a 20 μg/mL solution of LPS (Sigma). The cells were incubated in the presence of the drugs and 1 μg/mL LPS for another 20-24 hours. Typically after treatment the total DMSO was […] of the culture volume and the final concentrations of the compounds were approximately: 40, 20, 10, 1, 0.2 and 0 μM depending on the MW of each compound. Modified dilution series were prepared as needed to get adequate dose response curves without changing the % DMSO. Samples were run in duplicate or triplicate and included DMSO treated control wells with and without LPS stimulation. Drugs with a known activity such as Parthenolide or DHMEQ were run as experimental controls. After 20-24 hours LPS activation, the media supernatant was collected from the cells and replaced with fresh media. The supernatant samples were cleared by centrifugation at 1,000×g for 5 minutes, transferred to fresh storage plates, and stored frozen at −30° C.
After determining the appropriate supernatant dilutions experimentally, mIL-6 levels in the supernatants were quantified using Quantikine™ mouse IL-6 immunoassay (R&D Systems) according to the manufacturer's protocol. […] diluted in Calibrator Diluent were added to 50 μL of Assay Diluent in microplate wells pre-coated with an anti-mouse IL-6 capture antibody. Controls included a calibrated positive IL-6 control sample, non-specific binding (NSB) wells containing Calibrator Diluent but no IL-6, and a recombinant mouse IL-6 standard dilution series (10-1000 pg/mL). The plates were incubated at room temperature for 2 hours with shaking and then washed 5 times with 400 μL 1× Wash Buffer. […] anti-mouse IL-6 antibody was added to each well to detect IL-6 captured on the plate. The plates were incubated at room temperature for 2 hours and then washed 5 times with 400 μL 1× Wash Buffer. Equal volumes of Color Reagents A and B were mixed and 100 μL of this HRP Substrate Solution was added to each well on the plate. The blue color was allowed to develop for 30 minutes and then the reaction was stopped using 100 μL of Stop Solution yielding a yellow color. Absorbance at 450 nm with a reference wavelength subtracted at 595 nm was recorded using a Becton-Dickinson DTX 880 Multimode Detector.
The concentration of mIL-6 in the unknown samples was determined from a curve-fit of the mIL-6 standard absorbance data and multiplying by the dilution factor. The maximum activity achieved in the absence of the inhibitor (DMSO+LPS treated wells) was arbitrarily given a value of 100%; likewise the minimum activity in the absence of the stimulant (no LPS) was assigned a value of 0%. Inhibition of the amount of mIL-6 cytokine released in the drug treated wells was calculated relative to the maximum activation in the DMSO+LPS treated control wells (ie. % inhibition=100−(drug+LPS treated)/(DMSO+LPS treated)). Dose response curves were used to determine the effective concentration to inhibit 50% of the mIL-6 cytokine released (IC50) by means of a SigmaPlot macro which fits a sigmoidal dose-response curve to the (log 10) μM concentration versus % inhibition. […] This technique yields an objective value for the IC50 provided that 50% inhibition was approached at the concentrations tested. FIG. 5 illustrates the effect of the compound of Example 10 on inhibiting IL-6 release.
On the technique in general: ELISA stands for enzyme-linked immunosorbent assay.

Assay [3] relates to NF-κB. Description: NF-κB/293/GFP reporter cell assay (TNF-α induced GFP expression). Format: cell-based. Conditions: Homo sapiens, HEK293, 293 cells, pTRH1-NF-κB-dscGFP reporter, 2 h pretreatment, 20 ng/ml TNF-α 18 h; read-out: NF-KB/293/GFP EC50. How it is done: as §1

SMILES strings stand for the structures.

T1 sequence (Q04206 whole entry): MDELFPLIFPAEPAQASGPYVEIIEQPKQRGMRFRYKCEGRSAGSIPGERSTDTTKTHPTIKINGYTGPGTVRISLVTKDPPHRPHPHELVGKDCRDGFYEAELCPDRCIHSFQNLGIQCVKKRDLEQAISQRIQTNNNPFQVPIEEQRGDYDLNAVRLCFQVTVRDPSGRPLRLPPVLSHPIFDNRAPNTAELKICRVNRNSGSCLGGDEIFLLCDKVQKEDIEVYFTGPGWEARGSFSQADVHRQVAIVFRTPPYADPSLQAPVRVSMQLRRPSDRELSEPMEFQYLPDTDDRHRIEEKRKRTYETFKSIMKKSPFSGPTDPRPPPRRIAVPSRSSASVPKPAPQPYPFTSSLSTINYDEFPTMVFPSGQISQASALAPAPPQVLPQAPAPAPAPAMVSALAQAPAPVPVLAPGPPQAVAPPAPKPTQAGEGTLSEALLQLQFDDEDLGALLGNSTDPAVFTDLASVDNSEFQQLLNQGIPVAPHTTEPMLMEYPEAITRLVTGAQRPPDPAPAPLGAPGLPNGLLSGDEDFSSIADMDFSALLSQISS

By IC50 is commonly meant the concentration needed to halve the response being measured. Low values mean inhibition by little substance, high ones a need for much substance. As to `O=C(NC1=CC(=O)C2OC2C1=O)c1c(O)ccc2ccccc12` (racemic) [Example 12, (±)-N-(2,5-dioxo-7-oxabicyclo[4.1.0]hept-3-en-3-yl)-2-hydroxy-1-naphthamide], the results for the EC50 (in the assay with NF-κB [1]; in assay [2]; with NF-κB [3]) were 2.2 µM, 0.14 µM and 3.6 µM, respectively. On p65 (RelA), this compound returned an IC50 of 9.7 µM.

For the compound `Cc1cc(Br)cc(C(=O)NC2=CC(=O)C3OC3C2O)c1O` (racemic) [Example 13, (±)-5-bromo-2-hydroxy-N-(2-hydroxy-5-oxo-7-oxabicyclo[4.1.0]hept-3-en-3-yl)-3-methylbenzamide], the EC50 with NF-κB [1] amounted to 21 µM; in assay [2], 1.7 µM; in the assay with NF-κB [3], 9.2 µM. On p65 (RelA), this compound gave an IC50 of 8.7 µM.

Regarding `Cc1cc(Br)cc(C(=O)NC2=CC(=O)C3OC3C2=O)c1O` (racemic) [Example 14, (±)-5-bromo-N-(2,5-dioxo-7-oxabicyclo[4.1.0]hept-3-en-3-yl)-2-hydroxy-3-methylbenzamide], the EC50 in the assay on NF-κB [1] is 2.9 µM; in assay [2], 0.25 µM; in the assay on NF-κB [3], 3.6 µM. In addition, the IC50 at p65 (RelA) amounted to 5.3 µM.

Take `CN(C)c1ccc(C(=O)NC2=CC(=O)C3OC3C2=O)c(O)c1` (racemic) [Example 18, (±)-4-(dimethylamino)-N-(2,5-dioxo-7-oxabicyclo[4.1.0]hept-3-en-3-yl)-2-hydroxybenzamide]: the results for the EC50 (in the assay with NF-κB [1]; in assay [2]; with NF-κB [3]) were 2.1 µM, 0.58 µM and 3.1 µM, respectively. This compound displayed an IC50 at p65 (RelA) of 26 µM.

The values are drawn from patent US20120046357A1, “Benzamide and Napthamide Derivatives Inhibiting Nuclear Factor-Kappa (B) - (NK-kB)” (Profectus Biosciences, Inc., priority 2009, published 2012).
